Experimental data reported in ChEMBL document CHEMBL5500384, “New synergistic benzoquinone scaffolds as inhibitors of mycobacterial cytochrome bc1 complex to treat multi-drug resistant tuberculosis” (Eur J Med Chem, 2024).
In brackets after ≈: the same amount, converted by molar mass.

What was measured:
[1] = test system: Mycobacterium tuberculosis; experiment: Antitubercular activity against Mycobacterium tuberculosis H37Rv incubated for 5 days by microtiter plate method; type: functional; settings: 120 h, time 5 day
[2] = test system: Mycolicibacterium smegmatis; experiment: Antibacterial activity against Mycobacterium smegmatis ATCC 14468 assessed as log2 fold change in methylase expression at 3 ug/ml incubated for 12 hrs by mass spectrometric analysis; type: functional; settings: dose 3 µg/ml
[3] = test system: Mycolicibacterium smegmatis; experiment: Antibacterial activity against Mycobacterium smegmatis ATCC 14468 assessed as log2 fold change in transposase expression at 3 ug/ml incubated for 12 hrs by mass spectrometric analysis; type: functional; settings: dose 3 µg/ml
[4] = test system: Mycolicibacterium smegmatis; experiment: Antibacterial activity against Mycobacterium smegmatis ATCC 14468 assessed as log2 fold change in GluD expression at 3 ug/ml incubated for 12 hrs by mass spectrometric analysis; type: functional; settings: dose 3 µg/ml
[5] = test system: Mycolicibacterium smegmatis; experiment: Antibacterial activity against Mycobacterium smegmatis ATCC 14468 assessed as log2 fold change in integral membrane protein expression at 3 ug/ml incubated for 12 hrs by mass spectrometric analysis; type: functional; settings: dose 3 µg/ml
[6] = test system: Mycolicibacterium smegmatis; experiment: Antibacterial activity against Mycobacterium smegmatis ATCC 14468 assessed as log2 fold change in signal transduction histidine kinase expression at 3 ug/ml incubated for 12 hrs by mass spectrometric analysis; type: functional; settings: dose 3 µg/ml
[7] = test system: Mycolicibacterium smegmatis; experiment: Antibacterial activity against Mycobacterium smegmatis ATCC 14468 assessed as log2 fold change in shikimate transporter expression at 3 ug/ml incubated for 12 hrs by mass spectrometric analysis; type: functional; settings: dose 3 µg/ml
[8] = test system: Mycolicibacterium smegmatis; experiment: Antibacterial activity against Mycobacterium smegmatis ATCC 14468 assessed as log2 fold change in probable cytochrome c oxidase subunit 3 expression at 3 ug/ml incubated for 12 hrs by mass spectrometric analysis; type: functional; settings: dose 3 µg/ml
[9] = test system: Mycolicibacterium smegmatis; experiment: Antibacterial activity against Mycobacterium smegmatis ATCC 14468 assessed as log2 fold change in cytochrome P450 107B1 expression at 3 ug/ml incubated for 12 hrs by mass spectrometric analysis; type: functional; settings: dose 3 µg/ml
[10] = test system: Mycolicibacterium smegmatis; experiment: Antibacterial activity against Mycobacterium smegmatis ATCC 14468 assessed as log2 fold change in cytochrome bc1 complex Rieske-iron-sulfur subunit expression at 3 ug/ml incubated for 12 hrs by mass spectrometric analysis; type: functional; settings: dose 3 µg/ml
[11] = Cytotoxicity against african green monkey Vero cells by MTT assay; type: toxicity, cell-based; settings: chlorocebus sabaeus
[12] = Cytotoxicity against african green monkey Vero cells assessed as cell viability at 100 ug/ml by MTT assay; type: toxicity, cell-based; settings: chlorocebus sabaeus, at 100 µg/mL, read-out: Activity
[13] = Cytotoxicity against african green monkey Vero cells assessed as cell viability at 25 ug/ml by MTT assay; type: toxicity, cell-based; settings: chlorocebus sabaeus, at 25 µg/mL, read-out: Activity
[14] = Cytotoxicity against african green monkey Vero cells assessed as cell viability at 12.5 ug/ml by MTT assay; type: toxicity, cell-based; settings: chlorocebus sabaeus, at 12.5 µg/mL, read-out: Activity
[15] = Cytotoxicity against african green monkey Vero cells assessed as cell viability at 6.25 ug/ml by MTT assay; type: toxicity, cell-based; settings: chlorocebus sabaeus, at 6.25 µg/mL, read-out: Activity
[16] = Acute toxicity in Albino mouse assessed as mortality at 2000 mg/kg, po after 2 to 4 hrs; type: organism-based; settings: in vivo, time 2-4 hrs
[17] = Acute toxicity in po dosed Albino mouse assessed as mortality after 14 days; type: organism-based; settings: in vivo, time 14 day
[18] = Acute toxicity in Albino mouse assessed as change in total leucocyte count at 50 to 2000 mg/kg, po measured after 14 days (reference value: 7400 mm3); type: organism-based; settings: in vivo, 336 h, dose 50-2000 mg/kg, time 14 day
[19] = Acute toxicity in Albino mouse assessed as change in neutrophils at 50 to 2000 mg/kg, po measured after 14 days (reference value: 75%); type: organism-based; settings: in vivo, 336 h, dose 50-2000 mg/kg, time 14 day
[20] = Acute toxicity in Albino mouse assessed as change in lymphocytes at 50 to 2000 mg/kg, po measured after 14 days (reference value: 21%); type: organism-based; settings: in vivo, 336 h, dose 50-2000 mg/kg, time 14 day
[21] = Acute toxicity in Albino mouse assessed as change in eosinophils at 50 to 2000 mg/kg, po measured after 14 days (reference value: 3%); type: organism-based; settings: in vivo, 336 h, dose 50-2000 mg/kg, time 14 day
[22] = Acute toxicity in Albino mouse assessed as change in ESR at 50 to 2000 mg/kg, po measured after 14 days (reference value: 10 millimeter); type: organism-based; settings: in vivo, 336 h, dose 50-2000 mg/kg, time 14 day
[23] = Acute toxicity in Albino mouse assessed as change in RBC count measured per million cells at 50 to 2000 mg/kg, po measured after 14 days (reference value: 9.15 microL); type: organism-based, Erythrocyte; settings: in vivo, 336 h, dose 50-2000 mg/kg, time 14 day
[24] = Acute toxicity in Albino mouse assessed as change in SGOT count at 50 to 2000 mg/kg, po measured after 14 days (reference value: 42 IU/L); type: organism-based; settings: in vivo, 336 h, dose 50-2000 mg/kg, time 14 day
[25] = Acute toxicity in Albino mouse assessed as change in SGPT count at 50 to 2000 mg/kg, po measured after 14 days (reference value: 52 IU/L); type: organism-based; settings: in vivo, 336 h, dose 50-2000 mg/kg, time 14 day
[26] = Acute toxicity in Albino mouse assessed as change in serum urea level at 50 to 2000 mg/kg, po measured after 14 days (reference value: 46 mg/dl); type: organism-based; settings: in vivo, 336 h, dose 50-2000 mg/kg, time 14 day
[27] = test system: Mycolicibacterium smegmatis; experiment: Antibacterial activity against Mycobacterium smegmatis ATCC 14468 assessed as log2 fold change in L-(-)-methionine metabolite level by mass spectrometry analysis; type: functional
[28] = test system: Mycolicibacterium smegmatis; experiment: Antibacterial activity against Mycobacterium smegmatis ATCC 14468 assessed as log2 fold change in l-tyrosine metabolite level by mass spectrometry analysis; type: functional
[29] = test system: Mycolicibacterium smegmatis; experiment: Antibacterial activity against Mycobacterium smegmatis ATCC 14468 assessed as log2 fold change in adenosine metabolite level by mass spectrometry analysis; type: functional
[30] = test system: Mycolicibacterium smegmatis; experiment: Antibacterial activity against Mycobacterium smegmatis ATCC 14468 assessed as log2 fold change in N-Acetyl-l-glutamic acid metabolite level by mass spectrometry analysis; type: functional
[31] = test system: Mycolicibacterium smegmatis; experiment: Antibacterial activity against Mycobacterium smegmatis ATCC 14468 assessed as log2 fold change in (22S)-22-hydroxycampest-4-en-3-one metabolite level by mass spectrometry analysis; type: functional
[32] = Renal toxicity in Albino mouse assessed as change in renal corpuscles at 50 to 2000 mg/kg, po measured after 14 days; type: organism-based; settings: in vivo, 336 h, dose 50-2000 mg/kg, time 14 day
[33] = Renal toxicity in Albino mouse assessed as change in renal tubules at 50 to 2000 mg/kg, po measured after 14 days; type: organism-based; settings: in vivo, 336 h, dose 50-2000 mg/kg, time 14 day
[34] = Renal toxicity in Albino mouse assessed as change in tubular capillaries at 50 to 2000 mg/kg, po measured after 14 days; type: organism-based; settings: in vivo, 336 h, dose 50-2000 mg/kg, time 14 day
[35] = Renal toxicity in Albino mouse assessed as extravasation of RBC at 50 to 2000 mg/kg, po measured after 14 days; type: organism-based, Erythrocyte; settings: in vivo, 336 h, dose 50-2000 mg/kg, time 14 day
[36] = Renal toxicity in Albino mouse assessed as structural absorbability abnormalities at 50 to 2000 mg/kg, po measured after 14 days; type: organism-based; settings: in vivo, 336 h, dose 50-2000 mg/kg, time 14 day
[37] = Hepatotoxicity in Albino mouse assessed as change in portal vein at 50 to 2000 mg/kg, po measured after 14 days; type: toxicity, organism-based; settings: in vivo, 336 h, dose 50-2000 mg/kg, time 14 day
[38] = Hepatotoxicity in Albino mouse assessed as change in bile duct at 50 to 2000 mg/kg, po measured after 14 days; type: toxicity, organism-based, Liver; settings: in vivo, 336 h, dose 50-2000 mg/kg, time 14 day
[39] = Hepatotoxicity in Albino mouse assessed as change in hepatocytes at 50 to 2000 mg/kg, po measured after 14 days; type: toxicity, organism-based; settings: in vivo, 336 h, dose 50-2000 mg/kg, time 14 day
[40] = Pulmonary toxicity in Albino mouse assessed as appearance of goblet cells at 50 to 2000 mg/kg, po measured after 14 days; type: organism-based; settings: in vivo, 336 h, dose 50-2000 mg/kg, time 14 day

Row | SMILES | MIC [1] | log2FC [2] | log2FC [3] | log2FC [4] | log2FC [5] | log2FC [6] | log2FC [7] | log2FC [8] | log2FC [9] | log2FC [10] | viability at 100 ug/ml [12] | viability at 25 ug/ml [13] | viability at 12.5 ug/ml [14] | viability at 6.25 ug/ml [15] | Activity [18] | Activity [19] | Activity [20] | Activity [21] | Activity [22] | Activity [24] | also measured
1 | COc1ccc(C2C(Cl)C(=O)N2C2=C(Cl)C(=O)c3ccccc3C2=O)cc1 (stereo not given) | 31.1 µM (≈ 12.5 µg/mL) | -6.64 | -1.22 | -1.11 | -6.64 | -6.64 | -6.64 | 2.57 | 6.64 | 1.4 | 0.7% | 37.6% | 68.1% | 100% | 9600 mm3 | 62% | 32% | 4% | 15 millimeter/hr | 95 IU/L | Activity [11]: Dose-Dependent Effect; Activity [16]: Toxic; LD50 at 336 h [17]: 50 mg/kg; Activity [23]: 9.4; Activity [25]: 64 IU/L; Activity [26]: 50 mg/dL; log2FC [27]: -5.44; log2FC [28]: -1.68; log2FC [29]: -2.55; log2FC [30]: -1.34; log2FC [31]: 2.67; Activity [32]: Non-Toxic; Activity [33]: Non-Toxic; Activity [34]: Non-Toxic; Activity [35]: Non-Toxic; Activity [36]: Non-Toxic; Activity [37]: Non-Toxic; Activity [38]: Non-Toxic; Activity [39]: Non-Toxic; Activity [40]: Non-Toxic
2 | CN(C)c1ccc(C2C(Cl)C(=O)N2C2=C(Cl)C(=O)c3ccccc3C2=O)cc1 (stereo not given) | 15.1 µM (≈ 6.25 µg/mL) | -1.9 | -6.64 | -1.78 | -1.06 | -6.64 | -6.64 | 2.37 | 6.64 | 1.61 | 10.2% | 40.9% | 79.5% | 100% | 9300 mm3 | 60% | 34% | 5% | 16 millimeter/hr | 109 IU/L | Activity [11]: Dose-Dependent Effect; Activity [16]: Toxic; LD50 at 336 h [17]: 300 mg/kg; Activity [23]: 9.67; Activity [25]: 73 IU/L; Activity [26]: 48 mg/dL; log2FC [27]: -4.48; log2FC [28]: -1.13; log2FC [29]: -1.69; log2FC [30]: -1.04; log2FC [31]: 3.41; Activity [32]: Non-Toxic; Activity [33]: Non-Toxic; Activity [34]: Non-Toxic; Activity [35]: Non-Toxic; Activity [36]: Non-Toxic; Activity [37]: Non-Toxic; Activity [38]: Non-Toxic; Activity [40]: Non-Toxic
3 | O=C1C(Cl)=C(Cl)C(=O)c2ccccc21 [Dichlon] | 13.8 µM (≈ 3.12 µg/mL) | -1.53 | -1.92 | -3.7 | -6.64 | -6.64 | -6.64 | 2.56 | 6.64 | 6.64 | 28.7% | 67.1% | 100% | 100% | 10400 mm3 | 43% | 53% | 3% | 20 millimeter/hr | 29 IU/L | Activity [25]: 17 IU/L; Activity [26]: 51 mg/dL; log2FC [27]: -3.97; log2FC [28]: -1.18; log2FC [29]: -1.31; log2FC [30]: -0.61; log2FC [31]: -2.01; Activity [32]: Non-Toxic; Activity [33]: Non-Toxic; Activity [34]: Non-Toxic; Activity [35]: Non-Toxic; Activity [36]: Non-Toxic; Activity [37]: Non-Toxic; Activity [38]: Non-Toxic; Activity [39]: Non-Toxic; Activity [40]: Non-Toxic
